Measurements from patent EP4711369A1, “1H-[1,2,3]TRIAZOLO[4,5-H]QUINAZOLINE COMPOUNDS AS PROTEIN KINASE INHIBITORS” (Chengdu Cynogen Bio-Pharmaceutical Technology Co., Ltd., priority 2023, dated 2024).
pIC50: −log10 of the molar value. Read-outs that look alike come from different tables or passages of the source.

What was measured:
[1] = tested on: human breast cancer HCC1806 cells; test: Assay of cell proliferation (CellTiter-Glo); format: cell-based; conditions: 6 days, read-out: HCC1806 IC50 of cell proliferation inhibitory activity
Experimental: (§1) Human ovarian cancer OVCAR3 cells were inoculated at 2000 cells/well in a 96-well plate and cultured in RPMI 1640 medium containing 20% FBS at 37 °C and 5% CO2 overnight in an incubator. The next day, the compounds were subjected to a three-fold gradient dilution in DMSO from a peak concentration of 2 mM to give nine concentrations. Then, the compounds were diluted 3:200 in growth medium, and finally diluted 1:3 in the cell culture supernatant to give a culture supernatant containing 0.5% DMSO, with the compounds treatment concentrations ranging from 10 µM to 0.1 nM. The cells and the compounds were incubated at 37 °C and 5% CO2 for 6 days. Then, cell proliferation assay was performed using the CellTiter-Glo (manufacturer: Promega, Cat. No. G9242), and luminescence signals were read using a multifunctional microplate reader (model: Synergy H1, manufacturer: BiotTek). IC50 values were calculated by fitting of the concentration-response curves with a four-parameter analysis method using GraphPad Prism software.
(§2) The cell proliferation assays of human colon cancer HCT-116 cells, human breast cancer MCF-7 cells, human breast cancer HCC1806 cells, human acute myeloid leukemia MV-4-11 cells, and human gastric cancer MKN1 cells were performed according to the same method, with different inoculation densities set according to different cell growth characteristics.

[2] = tested on: human gastric cancer MKN1 cells; test: Assay of cell proliferation (CellTiter-Glo); format: cell-based; conditions: read-out: MKN1 IC50 of cell proliferation inhibitory activity
Experimental: as §1, §2

[3] = tested on: human acute myeloid leukemia MV-4-11 cells; test: Assay of cell proliferation (CellTiter-Glo); format: cell-based; conditions: MV4-11, 144 h, 6 days, read-out: MV-4-11 IC50 of cell proliferation inhibitory activity
Experimental: as §1, §2

[4] = target: CDK4/cyclin D1 (Homo sapiens, UniProt P11802); test: Assay of kinase activity (ADP-Glo); format: biochemical; conditions: kinase inhibitory activity
Experimental: (§3) CDK/cyclin catalyzes the phosphorylation of a substrate, which concomitantly consumes ATP and produces ADP. The inhibition rate (%) in the presence of a small molecule inhibitor was assessed by measuring the amount of ADP generated in the reaction. The assay compounds were thoroughly mixed by vortexing and then diluted in DMSO to 100× the assay concentration. […] A 2× kinase solution was prepared using a 1× kinase reaction buffer (50 mM Hepes, 10 mM MgCl2, 0.01% Brij35, 2 mM DTT). 2 µL of the kinase solution was transferred to the 384-well assay plate, and the plate was centrifuged at 1000 rpm for 60 seconds in a microplate centrifuge. The plate was incubated at 25 °C in a biochemical incubator for 10 minutes. A 2x mixture of substrate and ATP was prepared in the kinase reaction buffer. Then, 2 µL of the mixture of substrate and ATP was added to the 384-well assay plate. The plate was centrifuged at 1000 rpm for 60 seconds in a microplate centrifuge, and incubated at 25 °C in a biochemical incubator for 60 minutes. 4 µL of ADP-Glo Reagent (Cat. No. V9103, manufacturer: Promega) incubated at 25 °C in a biochemical incubator was added to each well of the 384-well assay plate. The plate was centrifuged at 1000 rpm for 60 seconds in a microplate centrifuge, and incubated at 25 °C in a biochemical incubator for 40 minutes. 8 µL of Detection Reagent incubated at 25 °C in a biochemical incubator was added to each well of the 384-well assay plate. The plate was centrifuged at 1000 rpm for 60 seconds in a microplate centrifuge, and incubated at 25 °C in a biochemical incubator for 40 minutes. Finally, luminescence signals were read using a multifunctional microplate reader (model: PHERAstar FSX, manufacturer: BMG). IC50 values were calculated by nonlinear fitting of the concentration-response curves using GraphPad Prism software.

[5] = target: CDK2/cyclin E (Homo sapiens, UniProt P24941); test: Assay of kinase activity (ADP-Glo); format: biochemical; conditions: kinase inhibitory activity, read-out: CDK2/E1 IC50
Experimental: as §3

[6] = target: CDK6/cyclin D3 (Homo sapiens, UniProt Q00534); test: Assay of kinase activity (ADP-Glo); format: biochemical; conditions: kinase inhibitory activity
Experimental: (§4) CDK/cyclin catalyzes the phosphorylation of a substrate, which concomitantly consumes ATP and produces ADP. The inhibition rate (%) in the presence of a small molecule inhibitor was assessed by measuring the amount of ADP generated in the reaction. The assay compounds were thoroughly mixed by vortexing and then diluted in DMSO to 100× the assay concentration. 40 nL of a compound was transferred to a 384-well assay plate using a nanoliter pipetting system (ECHO® 655 SYSTEM). A 2× kinase solution was prepared using a 1× kinase reaction buffer (50 mM Hepes, 10 mM MgCl2, 0.01% Brij35, 2 mM DTT). 2 µL of the kinase solution was transferred to the 384-well assay plate, and the plate was centrifuged at 1000 rpm for 60 seconds in a microplate centrifuge. The plate was incubated at 25 °C in a biochemical incubator for 10 minutes. A 2x mixture of substrate and ATP was prepared in the kinase reaction buffer. Then, 2 µL of the mixture of substrate and ATP was added to the 384-well assay plate. The plate was centrifuged at 1000 rpm for 60 seconds in a microplate centrifuge, and incubated at 25 °C in a biochemical incubator for 60 minutes. 4 µL of ADP-Glo Reagent (Cat. No. V9103, manufacturer: Promega) incubated at 25 °C in a biochemical incubator was added to each well of the 384-well assay plate. The plate was centrifuged at 1000 rpm for 60 seconds in a microplate centrifuge, and incubated at 25 °C in a biochemical incubator for 40 minutes. 8 µL of Detection Reagent incubated at 25 °C in a biochemical incubator was added to each well of the 384-well assay plate. The plate was centrifuged at 1000 rpm for 60 seconds in a microplate centrifuge, and incubated at 25 °C in a biochemical incubator for 40 minutes. Finally, luminescence signals were read using a multifunctional microplate reader (model: PHERAstar FSX, manufacturer: BMG). IC50 values were calculated by nonlinear fitting of the concentration-response curves using GraphPad Prism software.

[7] = tested on: Human ovarian cancer OVCAR3 cells; test: Assay of cell proliferation (CellTiter-Glo); format: cell-based; conditions: 6 days, read-out: OVCAR3 IC50 of cell proliferation inhibitory activity
Experimental: as §1

[8] = target: CDK9/cyclin T1 (Homo sapiens, UniProt P50750); test: Assay of kinase activity (ADP-Glo); format: biochemical; conditions: kinase inhibitory activity
Experimental: as §4

[9] = Homo sapiens, MKN-1, 144 h, MNK1, 6 days

CDK6/cyclin D3, sequence (Q00534 whole entry, species assumed): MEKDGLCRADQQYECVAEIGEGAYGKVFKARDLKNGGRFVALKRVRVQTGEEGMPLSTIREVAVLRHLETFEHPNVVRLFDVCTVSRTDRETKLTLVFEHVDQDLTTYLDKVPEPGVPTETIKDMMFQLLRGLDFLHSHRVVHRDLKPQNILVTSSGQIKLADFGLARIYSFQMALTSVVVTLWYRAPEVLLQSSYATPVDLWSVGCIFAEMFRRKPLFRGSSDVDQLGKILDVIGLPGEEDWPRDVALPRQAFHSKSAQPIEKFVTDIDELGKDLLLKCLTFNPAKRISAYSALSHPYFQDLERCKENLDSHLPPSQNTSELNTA
CDK6/cyclin D3, sequence (P30281 whole entry partner, species assumed): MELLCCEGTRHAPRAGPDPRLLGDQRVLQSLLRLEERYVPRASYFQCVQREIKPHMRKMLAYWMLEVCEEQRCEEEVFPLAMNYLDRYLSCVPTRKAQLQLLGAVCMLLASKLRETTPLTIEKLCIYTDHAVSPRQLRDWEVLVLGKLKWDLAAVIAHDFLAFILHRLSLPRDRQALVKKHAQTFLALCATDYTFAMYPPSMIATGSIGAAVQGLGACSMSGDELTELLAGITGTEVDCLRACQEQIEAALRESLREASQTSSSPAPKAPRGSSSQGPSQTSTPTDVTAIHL
CDK4/cyclin D1, sequence (P11802 whole entry, species assumed): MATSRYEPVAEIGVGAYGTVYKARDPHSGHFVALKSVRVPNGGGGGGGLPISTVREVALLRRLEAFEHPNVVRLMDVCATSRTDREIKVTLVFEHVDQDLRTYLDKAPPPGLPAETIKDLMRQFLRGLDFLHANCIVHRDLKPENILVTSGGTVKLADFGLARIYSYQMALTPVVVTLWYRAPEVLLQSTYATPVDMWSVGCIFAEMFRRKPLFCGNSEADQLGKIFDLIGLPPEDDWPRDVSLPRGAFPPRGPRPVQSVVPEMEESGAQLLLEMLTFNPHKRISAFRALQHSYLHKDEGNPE
CDK4/cyclin D1, sequence (P24385 whole entry partner, species assumed): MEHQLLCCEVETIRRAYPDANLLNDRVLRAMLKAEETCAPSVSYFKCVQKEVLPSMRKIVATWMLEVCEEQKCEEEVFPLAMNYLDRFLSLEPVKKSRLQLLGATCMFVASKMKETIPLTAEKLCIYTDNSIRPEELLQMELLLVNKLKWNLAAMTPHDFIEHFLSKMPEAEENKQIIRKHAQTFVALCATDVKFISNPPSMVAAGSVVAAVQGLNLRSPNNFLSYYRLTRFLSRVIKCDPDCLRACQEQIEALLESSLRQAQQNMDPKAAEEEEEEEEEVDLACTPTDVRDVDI
CDK9/cyclin T1, sequence (P50750 whole entry, species assumed): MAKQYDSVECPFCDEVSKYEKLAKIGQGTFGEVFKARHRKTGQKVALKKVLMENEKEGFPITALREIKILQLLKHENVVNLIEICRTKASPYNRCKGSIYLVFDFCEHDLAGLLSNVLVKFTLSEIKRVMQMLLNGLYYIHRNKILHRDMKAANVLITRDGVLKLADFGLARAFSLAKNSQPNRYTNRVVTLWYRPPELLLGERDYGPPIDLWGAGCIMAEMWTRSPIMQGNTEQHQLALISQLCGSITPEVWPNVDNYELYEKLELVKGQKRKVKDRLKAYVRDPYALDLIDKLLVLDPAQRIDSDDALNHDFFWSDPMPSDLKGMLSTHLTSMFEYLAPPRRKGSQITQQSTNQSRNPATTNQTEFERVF
CDK9/cyclin T1, sequence (O60563 whole entry partner, species assumed): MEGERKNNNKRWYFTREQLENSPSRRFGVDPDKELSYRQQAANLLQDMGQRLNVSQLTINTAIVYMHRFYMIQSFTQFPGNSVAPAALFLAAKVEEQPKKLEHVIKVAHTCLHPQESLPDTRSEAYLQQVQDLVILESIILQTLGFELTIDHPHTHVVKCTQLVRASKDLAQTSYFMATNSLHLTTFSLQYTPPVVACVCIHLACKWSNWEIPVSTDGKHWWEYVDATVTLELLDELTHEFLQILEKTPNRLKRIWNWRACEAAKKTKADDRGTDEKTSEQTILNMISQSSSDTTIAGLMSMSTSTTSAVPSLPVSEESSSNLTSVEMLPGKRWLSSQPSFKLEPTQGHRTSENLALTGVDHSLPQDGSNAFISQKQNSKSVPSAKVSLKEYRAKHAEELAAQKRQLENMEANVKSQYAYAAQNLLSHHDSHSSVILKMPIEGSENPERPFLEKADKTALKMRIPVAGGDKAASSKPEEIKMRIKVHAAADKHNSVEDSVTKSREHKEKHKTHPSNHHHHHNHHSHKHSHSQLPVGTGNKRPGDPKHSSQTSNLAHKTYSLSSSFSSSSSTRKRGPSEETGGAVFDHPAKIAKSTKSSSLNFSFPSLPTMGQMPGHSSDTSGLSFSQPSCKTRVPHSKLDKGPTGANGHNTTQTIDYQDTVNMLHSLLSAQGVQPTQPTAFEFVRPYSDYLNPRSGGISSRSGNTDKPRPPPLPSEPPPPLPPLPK

| Molecule | pIC50 ([1]; Homo sapiens, 144 h) | pIC50 [2, 9] | pIC50 [3] | pIC50 [4] | pIC50 [5] | pIC50 [6] | pIC50 ([7]; Homo sapiens, OVCAR-3, 144 h) | pIC50 [8] | pIC50 [1] | pIC50 ([2]; column head MKN1, 6 days) | pIC50 [7] |
| --- | --- | --- | --- | --- | --- | --- | --- | --- | --- | --- | --- |
| CC[C@H](Nc1nc(NCc2cnc(C)cc2C)c2ncn(C(C)C)c2n1)[C@@H](C)O [CYC-065 (Fadraciclib), reference compound] | 6.21 | 6.68 | 6.77 | 6.64 | 8.52 | < 6.00 | 6.46 | – | – | – | – |
| CC(C)n1nnc2ccc3cnc(Nc4ccc(C(=O)N5CCN(C)[C@H](C)C5)cc4)nc3c21 [Example I-27, (R)-(3,4-Dimethylpiperazin-1-yl)(4-((1-isopropyl-1H-[1,2,3]triazolo[4,5-H]quinazolin-8-yl)amino)phenyl)metha none] | 6.73 | 7.49 | 8.22 | 8.30 | 8.70 | 7.85 | 7.16 | – | – | – | – |
| CC(C)n1nnc2ccc3cnc(Nc4ccc(C(=O)N5CC[C@@H](O)[C@H](N)C5)cc4)nc3c21 [Example I-13, ((3R,4R)-3-Amino-4-hydroxypiperidin-1-yl)(4-((1-isopropyl-1H-[1,2,3]triazolo[4,5-H]quinazolin-8-yl)amino)phenyl)metha none] | 6.48 | 6.60 | 8.40 | 8.40 | 9.10 | 7.54 | 6.81 | – | – | – | – |
| CC(C)n1nnc2ccc3cnc(Nc4ccc(C(=O)N5CC[C@@H](C)[C@@H](N)C5)cc4)nc3c21 [Example I-12, ((3R,4R)-3-Amino-4-methylpiperidin-1-yl)(4-((1-isopropyl-1H-[1,2,3]triazolo[4,5-H]quinazolin-8-yl)amino)phenyl)metha none] | 7.08 | 7.52 | 8.22 | 8.52 | 9.00 | 7.74 | 7.59 | – | – | – | – |
| CC(C)n1nnc2ccc3cnc(Nc4ccc(C(=O)N5CCN(C)CC5)c(F)c4)nc3c21 [Example I-26, (2-Fluoro-4-((1-isopropyl-1H-[1,2,3]triazolo[4,5-H]quinazolin-8-yl)amino)phenyl)(4-methylpiperazin-1-yl)methanone] | 6.36 | 7.39 | – | 8.40 | 9.00 | 7.72 | 7.35 | 7.80 | – | – | – |

The next molecules have a higher pIC50 [4] than those just listed; values first:

| pIC50 ([1]; Homo sapiens, 144 h) | pIC50 [2, 9] | pIC50 [3] | pIC50 [4] | pIC50 [5] | pIC50 [6] | pIC50 ([7]; Homo sapiens, OVCAR-3, 144 h) | pIC50 [8] | pIC50 [1] | pIC50 ([2]; column head MKN1, 6 days) | pIC50 [7] | Molecule |
| --- | --- | --- | --- | --- | --- | --- | --- | --- | --- | --- | --- |
| 6.76 | 7.38 | 8.05 | 8.70 | 8.70 | 7.74 | 7.23 | – | – | – | – | CC(C)n1nnc2ccc3cnc(Nc4ccc(C(=O)N5CCN(C)[C@@H](C)C5)cc4)nc3c21 [Example I-28, (S)-(3,4-Dimethylpiperazin-1-yl)(4-((1-isopropyl-1H-[1,2,3]triazolo[4,5-H]quinazolin-8-yl)amino)phenyl)metha none] |
| 6.82 | 7.70 | – | 8.70 | 9.00 | 7.03 | 7.72 | 7.36 | – | – | – | CC(C)N1CCN(C(=O)c2ccc(Nc3ncc4ccc5nnn(C(C)C)c5c4n3)cc2)CC1 [Example I-30, (4-Isopropylpiperazin-1-yl)(4-((1-isopropyl-1H-[1,2,3]triazolo[4,5-H]quinazolin-8-yl)amino)phenyl)metha none] |
| 6.77 | 6.95 | – | 8.70 | 9.15 | 7.70 | 6.84 | 6.83 | – | – | – | CC(C)n1nnc2c(C(F)F)cc3cnc(Nc4ccc(C(=O)N5CCCN(C)CC5)cc4)nc3c21 [Example I-47, (4-((4-(Difluoromethyl)-1-isopropyl-1H-[1,2,3]triazolo[4,5-H]quinazolin-8-yl)amino)phenyl)(4-methyl-1,4-diazepan-1-yl)methanone] |
| 6.37 | 7.18 | 7.96 | 8.70 | 8.70 | 7.41 | 6.99 | – | – | – | – | CC(C)n1nnc2ccc3cnc(Nc4ccc(C(=O)N5CC[C@H](N)[C@H](O)C5)cc4)nc3c21 [Example I-14, ((3R,4S)-4-Amino-3-hydroxypiperidin-1-yl)(4-((1-isopropyl-1H-[1,2,3]triazolo[4,5-H]quinazolin-8-yl)amino)phenyl)metha none] |
| – | – | – | 8.70 | 9.00 | 8.10 | – | 6.89 | 6.20 | 6.35 | 6.17 | (S)-(3-Aminopyrrolidin-1-yl)(4-(4-(difluoromethyl)-1-isopropyl-1H-[1,2,3]triazolo[4,5-H]quinazolin-8-yl)amino)phenyl)methanone [Example I-43] |
| 7.89 | 9.00 | – | 9.30 | 10.30 | 8.52 | 8.10 | 8.40 | – | – | – | N[C@H]1CCN(C(=O)c2ccc(Nc3ncc4ccc5nnn(C6CCCC6)c5c4n3)cc2)C1 [Example I-38, (S)-(3-Aminopyrrolidin-1-yl)(4-((1-cyclopentyl-1H-[1,2,3]triazolo[4,5-H]quinazolin-8-yl)amino)phenyl)methanone] |
| 6.39 | 6.90 | – | 8.70 | 9.15 | 7.80 | 6.49 | 6.85 | – | – | – | CN[C@H]1CCN(C(=O)c2ccc(Nc3ncc4cc(C(F)F)c5nnn(C(C)C)c5c4n3)cc2)C1 [Example I-44, (S)-(4-((4-(difluoromethyl)-1-isopropyl-1H-[1,2,3]triazolo[4,5-H]quinazolin-8-yl)amino)phenyl)(3-(methylamino)pyrrolidin-1-yl)methanone] |
